We go through 10 compounds from patent US20200369728A1, “PEPTIDOMIMETIC MACROCYCLES AND USES THEREOF” (Aileron Therapeutics, Inc., priority 2015, published 2020).

One test concerns RKO. Description: Cell viability assay (MTT), RKO. The settings on record: read-out: RKO EC50 (72 h).
The subject of another test is Caspase 3. The experiment in a line: Caspase 3 detection assay in SJSA1 cells. It counts as cell-based. The settings on record: SJSA1, 48 h, Caspase 3 activation over DMSO-treated cells.
A further test has as its system SJSA-1 cells. The experiment in a line: Cell lysis by peptidomimetic macrocycles (LDH release). Format: cell-based. Conditions: SJSA-1, 1 h. A digest of the protocol:
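Membrane lysis measured as supernatant LDH after a 1 h, 37 °C exposure of SJSA-1 cells, held in RPMI with 1% FBS, to macrocycles at final 6.25-50 μM with 0.5% DMSO. Lytic references were 10 μM melittin and 1% Triton X-100; DMSO alone served as non-lytic control.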
For orientation: LDH in the medium is a marker of cell lysis.

What is called EC50 is the concentration that produces a half-maximal response.

Bridge positions count the residues as written; N and C are the ends. Square brackets hold non-standard residues; d marks the D form. Peptide text beside a SMILES is read from it. R8 = C=CCCCCCC[C@@](C)(N)C(=O)O; S5 = C=CCCC[C@](C)(N)C(=O)O

As for `CC(=O)N[C@@H](CCC(=O)O)C(=O)N[C@H](C(=O)N[C@@H](Cc1ccccc1)C(=O)N[C@]1(C)CCCCCCC=CCCC[C@@](C)(C(=O)N[C@@H](CO)C(=O)N[C@@H](C)C(=O)N[C@@H](C)C(N)=O)NC(=O)[C@H](CC(C)C)NC(=O)[C@H](CCC(N)=O)NC(=O)[C@H](C)NC(=O)[C@H](Cc2c[nH]c3ccccc23)NC(=O)[C@H](Cc2ccc(O)cc2)NC(=O)[C@H](CCC(=O)O)NC1=O)[C@@H](C)O` [compound 161] (Ac-ETF[R8]EYWAQL[S5]SAA-NH2; staple 4-11), the EC50 in the test with RKO was > 30 µM. Moreover, in the test with Caspase 3, the “caspase 0.3 μM” value is listed as 2, the “caspase 3 μM” value worked out at 8, the “caspase 10 μM” value is reported as 14 and the “caspase 30 μM” value is 22. In addition, in the test on SJSA-1 cells, the “6.25 μM % Lysed cells (1 h LDH)” value was 1%, the “25 μM % Lysed cells (1 h LDH)” value is recorded as −1% and the “50 μM % Lysed cells (1 h LDH)” value was 0%.

As to `CC(=O)N[C@@H](CC(C)C)C(=O)N[C@H](C(=O)N[C@@H](Cc1ccccc1)C(=O)N[C@]1(C)CCCCCCC=CCCC[C@@](C)(C(=O)N[C@@H](CO)C(=O)N[C@H](C(=O)N[C@@H](CO)C(N)=O)C(C)C)NC(=O)[C@H](CC(C)C)NC(=O)[C@H](CCC(N)=O)NC(=O)[C@H](C)NC(=O)[C@H](Cc2c[nH]c3ccccc23)NC(=O)[C@H](Cc2ccc(O)cc2)NC(=O)[C@H](C)NC1=O)[C@@H](C)O` [compound 121] (Ac-LTF[R8]AYWAQL[S5]SVS-NH2; staple 4-11), the EC50 in the test with RKO was < 5 µM. In the test with Caspase 3, the “caspase 0.3 μM” value turned out to be 1, the “caspase 3 μM” value is given as 5, the “caspase 10 μM” value is 19 and the “caspase 30 μM” value turned out to be 30. In the test on SJSA-1 cells, the “6.25 μM % Lysed cells (1 h LDH)” value is listed as 1%, the “25 μM % Lysed cells (1 h LDH)” value was found to be 1% and the “50 μM % Lysed cells (1 h LDH)” value stood at 7%.

Consider `CC(=O)N[C@@H](CC(C)C)C(=O)N[C@H](C(=O)N[C@@H](Cc1ccccc1)C(=O)N[C@]1(C)CCCCCCC=CCCC[C@@](C)(C(=O)N[C@@H](C)C(=O)N[C@@H](C)C(=O)N[C@@H](C)C(=O)N[C@@H](C)C(=O)N[C@@H](C)C(=O)N[C@H](C)C(N)=O)NC(=O)[C@H](CC(C)C)NC(=O)[C@H](CCC(N)=O)NC(=O)[C@H](C)NC(=O)[C@H](Cc2c[nH]c3cc(Cl)ccc23)NC(=O)[C@H](Cc2ccc(O)cc2)NC(=O)[C@H](C)NC1=O)[C@@H](C)O` (single isomer, unassigned) [compound 338], for which the 50% effective concentration (EC50) in the test with RKO was < 5 µM. For the same compound, in the test with Caspase 3, the “caspase 0.3 μM” value stood at 1, the “caspase 1 μM” value is recorded as 5, the “caspase 3 μM” value is 23 and the “caspase 10 μM” value is listed as 20. Also, the “caspase 30 μM” value in the test with Caspase 3 stood at 29. Also, in the test with SJSA-1 cells, the “6.25 μM % Lysed cells (1 h LDH)” value was determined as 0%, the “25 μM % Lysed cells (1 h LDH)” value was determined as 0% and the “50 μM % Lysed cells (1 h LDH)” value was found to be 1%.

In the case of `CC[C@H](C)[C@H](NC(=O)[C@H](C)NC(=O)[C@H](C)NC(=O)[C@]1(C)CCCC=CCCCCCC[C@@](C)(NC(=O)[C@H](Cc2ccccc2)NC(=O)[C@@H](NC(=O)[C@H](CC(C)C)NC(C)=O)[C@@H](C)O)C(=O)N[C@@H](C)C(=O)N[C@@H](Cc2ccc(O)cc2)C(=O)N[C@@H](Cc2c[nH]c3ccccc23)C(=O)N[C@@H](C)C(=O)N[C@@H](CCC(N)=O)C(=O)N[C@@H](CC(C)C)C(=O)N1)C(=O)N[C@H](CC(C)C)C(N)=O` (single isomer, unassigned) [compound 81], the EC50 in the test with RKO lay in the range of 5 to 15 µM. In the test with Caspase 3, the “caspase 0.3 μM” value worked out at 1, the “caspase 3 μM” value was 1, the “caspase 10 μM” value is recorded as 6 and the “caspase 30 μM” value was found to be 21. Besides, in the test with SJSA-1 cells, the “6.25 μM % Lysed cells (1 h LDH)” value turned out to be 1%, the “25 μM % Lysed cells (1 h LDH)” value was 0% and the “50 μM % Lysed cells (1 h LDH)” value was 0%.

As for `CC(=O)N[C@@H](C)C(=O)N[C@@H](CC(C)C)C(=O)N[C@H](C(=O)N[C@@H](Cc1ccccc1)C(=O)N[C@]1(C)CCCCCCC=CCCC[C@@](C)(C(=O)N[C@@H](CO)C(=O)N[C@@H](C)C(=O)N[C@@H](C)C(=O)N[C@H](C)C(N)=O)NC(=O)[C@H](CC2CCC2)NC(=O)[C@H](CCC(N)=O)NC(=O)[C@H](C)NC(=O)[C@H](Cc2c[nH]c3ccccc23)NC(=O)[C@H](Cc2ccc(O)cc2)NC(=O)[C@H](CCC(=O)O)NC1=O)[C@@H](C)O` (single isomer, unassigned) [compound 355], the EC50 with RKO lay in the range of 15 to 30 µM. In addition, in the test with Caspase 3, the “caspase 0.3 μM” value is reported as 1, the “caspase 1 μM” value worked out at 4, the “caspase 3 μM” value stood at 11 and the “caspase 10 μM” value was 13. Moreover, the “caspase 30 μM” value in the test with Caspase 3 was found to be 30. In the test on SJSA-1 cells, the “6.25 μM % Lysed cells (1 h LDH)” value is given as 0%, the “25 μM % Lysed cells (1 h LDH)” value was determined as 0% and the “50 μM % Lysed cells (1 h LDH)” value amounted to 0%.

Consider `CC(=O)N[C@@H](CC(C)C)C(=O)N[C@H](C(=O)N[C@@H](Cc1ccc(F)c(F)c1)C(=O)N[C@]1(C)CCCCCCC=CCCC[C@@](C)(C(=O)N[C@@H](CO)C(=O)N[C@@H](C)C(=O)N[C@@H](C)C(N)=O)NC(=O)[C@H](CC(C)C)NC(=O)[C@H](CCC(N)=O)NC(=O)[C@H](C)NC(=O)[C@H](Cc2c[nH]c3ccccc23)NC(=O)[C@H](Cc2ccc(O)cc2)NC(=O)[C@H](CCC(=O)O)NC1=O)[C@@H](C)O` (single isomer, unassigned) [compound 158], for which the EC50 in the test on RKO is > 30 µM. In the test with Caspase 3, the “caspase 0.3 μM” value was 1, the “caspase 3 μM” value turned out to be 1.67, the “caspase 10 μM” value was 5 and the “caspase 30 μM” value was 16.33. In the test on SJSA-1 cells, the “6.25 μM % Lysed cells (1 h LDH)” value amounted to 0% and the “25 μM % Lysed cells (1 h LDH)” value is listed as −2%.

On to `CC(=O)N[C@@H](CC(C)C)C(=O)N[C@H](C(=O)N[C@@H](Cc1ccccc1)C(=O)N[C@]1(C)CCCCCCC=CCCC[C@@](C)(C(=O)N[C@@H](CO)C(=O)N[C@@H](C)C(=O)N[C@@H](CO)C(N)=O)NC(=O)[C@H](CC(C)C)NC(=O)[C@H](CCC(N)=O)NC(=O)[C@H](C)NC(=O)[C@H](Cc2c[nH]c3ccccc23)NC(=O)[C@H](Cc2ccc(O)cc2)NC(=O)[C@H](C)NC1=O)[C@@H](C)O` [compound 122] (Ac-LTF[R8]AYWAQL[S5]SAS-NH2; staple 4-11), for which the EC50 with RKO was in the range of 5 to 15 µM. Further, in the test with Caspase 3, the “caspase 0.3 μM” value is recorded as 1, the “caspase 3 μM” value is listed as 2, the “caspase 10 μM” value is reported as 15 and the “caspase 30 μM” value is listed as 30. Besides, in the test with SJSA-1 cells, the “6.25 μM % Lysed cells (1 h LDH)” value is listed as 1%, the “25 μM % Lysed cells (1 h LDH)” value turned out to be 0% and the “50 μM % Lysed cells (1 h LDH)” value is on record as 6%.

As to `CC(=O)N[C@@H](CC(C)C)C(=O)N[C@H](C(=O)N[C@@H](Cc1ccccc1)C(=O)N[C@]1(C)CCCCCCC=CCCC[C@@](C)(C(=O)N[C@@H](CO)C(=O)N[C@@H](C)C(=O)N[C@@H](C)C(=O)N[C@H](C)C(N)=O)NC(=O)[C@H](CC2CCC2)NC(=O)[C@H](CCC(N)=O)NC(=O)[C@H](C)NC(=O)[C@H](Cc2c[nH]c3ccccc23)NC(=O)[C@H](Cc2ccc(O)cc2)NC(=O)[C@H](CCC(=O)O)NC1=O)[C@@H](C)O` (single isomer, unassigned) [compound 353], the EC50 with RKO fell in the range of 15 to 30 µM. Also, in the test with Caspase 3, the “caspase 0.3 μM” value is on record as 1, the “caspase 1 μM” value is given as 2, the “caspase 3 μM” value is given as 5 and the “caspase 10 μM” value is given as 7. For the same compound, in the test with Caspase 3, the “caspase 30 μM” value stood at 30. In addition, in the test on SJSA-1 cells, the “6.25 μM % Lysed cells (1 h LDH)” value came out at 0%, the “25 μM % Lysed cells (1 h LDH)” value is on record as 0% and the “50 μM % Lysed cells (1 h LDH)” value was 0%.

Regarding `CC(=O)N[C@@H](CCC(=O)O)C(=O)N[C@H](C(=O)N[C@@H](Cc1ccccc1)C(=O)N[C@]1(C)CCCCCCC=CCCC[C@@](C)(C(=O)N[C@@H](CO)C(=O)N[C@H](C(=O)N[C@@H](C)C(N)=O)C(C)C)NC(=O)[C@H](CC(C)C)NC(=O)[C@H](CCC(N)=O)NC(=O)[C@H](C)NC(=O)[C@H](Cc2c[nH]c3ccccc23)NC(=O)[C@H](Cc2ccc(O)cc2)NC(=O)[C@H](C(C)C)NC1=O)[C@@H](C)O` [compound 126] (Ac-ETF[R8]VYWAQL[S5]SVA-NH2; staple 4-11), the EC50 with RKO was > 30 µM. Moreover, in the test on Caspase 3, the “caspase 0.3 μM” value was 1, the “caspase 3 μM” value came out at 1, the “caspase 10 μM” value came to 6 and the “caspase 30 μM” value turned out to be 30. In the test on SJSA-1 cells, the “6.25 μM % Lysed cells (1 h LDH)” value is given as 1%, the “25 μM % Lysed cells (1 h LDH)” value stood at 1% and the “50 μM % Lysed cells (1 h LDH)” value is given as 1%.

On to `CC(=O)N[C@@H](CC(C)C)C(=O)N[C@H](C(=O)N[C@@H](Cc1ccccc1)C(=O)N[C@]1(C)CCCCCCC=CCCC[C@@](C)(C(=O)N[C@@H](C)C(=O)N[C@@H](C)C(=O)N[C@@H](C)C(=O)N[C@@H](C)C(=O)N[C@@H](C)C(=O)N[C@@H](C)C(=O)N[C@H](C)C(N)=O)NC(=O)[C@H](CC(C)C)NC(=O)[C@H](CCC(N)=O)NC(=O)[C@H](C)NC(=O)[C@H](Cc2c[nH]c3ccccc23)NC(=O)[C@H](Cc2ccc(O)cc2)NC(=O)[C@H](C)NC1=O)[C@@H](C)O` (single isomer, unassigned) [compound 316], for which the EC50 in the test with RKO was < 5 µM. Further, in the test on Caspase 3, the “caspase 0.3 μM” value is 6.5, the “caspase 1 μM” value turned out to be 10.5, the “caspase 3 μM” value stood at 21 and the “caspase 10 μM” value is listed as 32. Besides, the “caspase 30 μM” value in the test on Caspase 3 is 32.5. Besides, in the test on SJSA-1 cells, the “6.25 μM % Lysed cells (1 h LDH)” value stood at 0%, the “25 μM % Lysed cells (1 h LDH)” value amounted to 0% and the “50 μM % Lysed cells (1 h LDH)” value is reported as 1%.
